Experimental data from article PMC5460289, “Identification of New Shikonin Derivatives as Antitumor Agents Targeting STAT3 SH2 Domain” (Scientific Reports, 2017).

How the values were obtained:
[1] = tested on: STAT3 nuclear localization in MDA-MB-231 cells; assay: STAT3 nuclear localization (cytoplasmic and nuclear extracts, Western blot); type: cell-based, human; conditions: MDA-MB-231, 24 h
Procedure: It is known that the dimerization of STAT3 is induced by the phosphorylation at residue Tyr 705, which then leads to its nuclear translocation. Herein, we investigated the effect of PMM-172 and Stattic on STAT3 nuclear translocation. The cytoplasmic and nuclear proteins of treated cells were extracted and the expressions of STAT3 in both fractions were examined.
Figure 7 MDA-MB-231 cells were treated with indicated concentrations of PMM-172 or Stattic for 24 h, the expression levels of STAT3 in cytoplasmic and nuclear extracts were examined and relative expression levels were analyzed by Image J software. β-actin and Lamin B1 served as markers of cytoplasmic and nuclear extractions, respectively. […] (C) MCF-10A cells were treated with the indicated concentrations of PMM-172 for 24 h. PMM-172 had no effect on the level of the pSTAT3 level in MCF-10A cells. […] Data were shown as mean ± SD from three independent experiments, **P < 0.01. Cropped blots/gels were used in the figure and the gels had been run under the same experimental conditions; the full-length blots/gels are presented in Supplementary Figure S3.
To examine the relative proportion of STAT3 in the cytoplasm and nucleus, cytoplasmic and nuclear extracts were prepared. In brief, control and treated cells were collected and suspended in a buffer containing 10 mM HEPES (pH 7.9), 10 mM KCl, 0.1 mM EDTA (pH 8.0), 0.1 mM EGTA (pH 7.0), 1 mM DTT, 0.5 mM PMSF, 2 μg/mL leupeptin, 2 μg/mL aprotonin, 0.5 mg/mL benzamidine. After 15 min, NP-40 (0.25%) was added, and cell lysate was vortexed for 10 s and centrifuged at 10000 rmp at 4 °C for 1 min. […] The protein content in the nuclear and cytoplasmic fractions was determined using a Pierce BCA protein assay kit.
Cells were rinsed twice with cold PBS and then lysed with RIPA buffer containing a protease inhibitor mixture at 1:100 dilution on ice for 30 min. Insoluble components of cell lysates were removed by centrifugation (4 °C, 12000 rmp, 10 min), and protein concentrations were measured using a Pierce BCA protein assay kit. […]

[2] = tested on: pSTAT3 (Tyr705) in MDA-MB-231 cells; assay: Western blot of constitutive STAT3 activation; type: cell-based, human
From the text: It has been well recognized that the aberrant activation of STAT3 contributes to malignant transformation and tumorgenesis, and its activity is ultimately dependent upon phosphorylation of residue Y705. […] In this study, the ability of PMM-172 and Stattic inhibiting the constitutive STAT3 activation in MDA-MB-231 cells was investigated. […] We further measured STAT3 phosphorylation at Tyr705 in a time-course experiment.
Figure 6 (A) PMM-172 suppressed constitutive pSTAT3 (Tyr705) in a dose-dependent manner. (B) PMM-172 suppressed constitutive pSTAT3 (Tyr705) in a time-dependent manner. (C) MDA-MB-231 cells were treated with IL-6 (20 ng/mL) or vehicle for 30 min, with or without pretreatment with PMM-172 (2 μM) for 24 h. PMM-172 inhibited IL-6 induced phosphorylation of STAT3. (D) Stattic suppressed constitutive pSTAT3 (Tyr705) in a dose-dependent manner. (E) Stattic suppressed constitutive pSTAT3 (Tyr705) in a time-dependent manner. (F) Tyrosine phosphorylation of two STAT family proteins STAT1 and STAT5 were detected with specific antibodies. […] Data were shown as mean ± SD of three independent experiments. *P < 0.05, **P < 0.01. Cropped blots/gels were used in the figure and the gels had been run under the same experimental conditions; the full-length blots/gels are presented in Supplementary Figure S2.
Cells were rinsed twice with cold PBS and then lysed with RIPA buffer containing a protease inhibitor mixture at 1:100 dilution on ice for 30 min. Insoluble components of cell lysates were removed by centrifugation (4 °C, 12000 rmp, 10 min), and protein concentrations were measured using a Pierce BCA protein assay kit. Proteins were separated by sodium dodecyl sulfate-polyacrylamide gel electrophoresis (SDS-PAGE) and transferred from the gel onto polyvinylidene difluoride (PVDF) membranes. The membranes were blocked with 5% skim milk in TBST buffer for 1 h at room temperature, and then incubated with corresponding primary antibodies diluted in 5% milk-TBST solution at 4 °C with gentle shaking overnight. After washing five times (5 min each), corresponding HRP-conjugated secondary antibodies were incubated for 1 h at room temperature. Immunoreactive bands were visualized using an ECL detection kit (Invitrogen, USA) following the manufacturer’s instruction.

In the case of `COc1cc(OC)cc(-c2nnc(SCC(=O)O[C@H](CC=C(C)C)C3=CC(=O)c4c(O)ccc(O)c4C3=O)o2)c1` [PMM-172, (R)-1-(5,8-dihydroxy-1,4-dioxo-1,4-dihydronaphthalen-2-yl)-4-methylpent-3-en-1-yl 2-((5-(3,5-dimethoxyphenyl)-1,3,4-oxadiazol-2-yl)thio)acetate], the “level of STAT3 in the cytoplasmic fraction” value [1] is reported as “slightly increased”, the “level of STAT3 in the nuclear fraction” value [1] is reported as “decreased by PMM-172 in a dose-dependent manner” and the STAT3 expression [2] is reported as “had no effect on STAT3 expression”. The “STAT3 phosphorylation at Tyr705, time-course” value [2] was “reduced with the longer treatment” and the “level of Y705-phosphorylated STAT3 (constitutive), dose series” value [2] was “could reduce the level of Y705-phosphorylated STAT3 in MDA-MB-231 cells in a dose-dependent manner”.
